# pEC50: −log10 of the molar value.
# Assays:
# Format in all cases: cell-based, human
# [1] = system: SiHa cells; experiment: Cell toxicity in SiHa cells without TRAIL (MTT); conditions: overnight
# Experimental: Figure 3 (a) HPV^+ SiHa cells are resistant to TRAIL-induced apoptosis as compared with the human osteosarcoma cell line U2OS. Cells (2 × 10^4 cells per well) were seeded into a 96-well plate, allowed to incubate overnight, and then treated with the indicated concentration of TRAIL in the presence of cycloheximide (5 μg/ml). The viability of cells was measured after overnight incubation using the MTT assay; the viability of cells untreated with TRAIL was set at 100% for each group. (b) The indicated concentrations of three small molecules were added to SiHa cells, and an MTT assay was preformed after overnight incubation. The viability of cells untreated with small molecules was set as 100%. (c) The indicated concentrations of myricetin or spinacine were added 4 h prior to TRAIL (100 ng/ml) in the presence of cycloheximide (5 μg/ml) and incubated at 37 °C overnight. […] Cell viability was measured after overnight incubation using the MTT assay, and the viability of cells untreated with either myricetin or spinacine was set at 100%. […]
# The extracellular domain of human TRAIL was cloned into a pTriEx expression plasmid containing N-terminal Hisx6 tag. […] All experiments were repeated at least three times (three biological replicates, carried out on different days), with each experimental group measured in triplicate within each of these individual experiments. […]
# [2] = system: SiHa cells; experiment: TRAIL-induced apoptosis in SiHa cells (MTT); conditions: for viability at 125 µM / pEC50: Homo sapiens; for viability at 125 µM: SiHa, 125 μM compound, TRAIL 100 ng/ml + cycloheximide 5 μg/ml, cells without small molecule = 100%, read-out: viability of SiHa cells in the presence of TRAIL; for pEC50 / increase in cell death in the presence versus absence of TRAIL: SiHa cells; for pEC50: compound 4 h prior to TRAIL 100 ng/ml + cycloheximide 5 μg/ml, overnight, MTT; for increase in cell death in the presence versus absence of TRAIL: from the EC50 values of Table 2
# Experimental: Figure 3 (a) HPV^+ SiHa cells are resistant to TRAIL-induced apoptosis as compared with the human osteosarcoma cell line U2OS. Cells (2 × 10^4 cells per well) were seeded into a 96-well plate, allowed to incubate overnight, and then treated with the indicated concentration of TRAIL in the presence of cycloheximide (5 μg/ml). The viability of cells was measured after overnight incubation using the MTT assay; the viability of cells untreated with TRAIL was set at 100% for each group. (b) The indicated concentrations of three small molecules were added to SiHa cells, and an MTT assay was preformed after overnight incubation. The viability of cells untreated with small molecules was set as 100%. (c) The indicated concentrations of myricetin or spinacine were added 4 h prior to TRAIL (100 ng/ml) in the presence of cycloheximide (5 μg/ml) and incubated at 37 °C overnight. The viability of cells untreated with small molecules was set at 100%. (d and e) SiHa cells (2 × 10^4 cells per well) were seeded into a 96-well plate and allowed to incubate overnight. In all, 100 μM of myricetin and 50 μM of spinacine were added 4 h prior to either (d) doxorubicin or (e) cisplatin. Cell viability was measured after overnight incubation using the MTT assay, and the viability of cells untreated with either myricetin or spinacine was set at 100%. Experiments were performed in triplicate, and error bars indicate the S.D.
# Figure 5 Myricetin and spinacine (5) can re-sensitize HPV^+, but not HPV^−, cells to treatment with TRAIL. SiHa (2 × 10^4 cells per well) and C33A cells (1 × 10^4 cells per well) were seeded into a 96-well plate and allowed to incubate overnight, and then cells were pretreated in the presence or absence of (a) myricetin (100 μM) or (b) spinacine (50 μM) for 4 h. The indicated concentration of TRAIL along with cycloheximide (5 μg/ml) was added, and the cells were allowed to incubate overnight. Cell viability was measured by MTT assay, and the viability of cells untreated with TRAIL was set at 100%. Experiments were performed in triplicate, and error bars indicate the S.D.
# The extracellular domain of human TRAIL was cloned into a pTriEx expression plasmid containing N-terminal Hisx6 tag. His-TRAIL was expressed in the E. coli BL-21 pLys strain and purified as previously described. Doxorubicin and cisplatin were purchased from Sigma. His-TRAIL, doxorubicin, and cisplatin were diluted in PBS to the desired concentration before using. To measure cell survival following treatment with TRAIL, cisplatin and doxorubicin, SiHa (2 × 10^4/well), C33A (1 × 10^4/well), and HNSCC cells (2 × 10^4/well) were seeded into 96-well plates and allowed to adhere overnight. Small molecules at the desired concentration were added and incubated at 37 °C for 4 h. As indicated, TRAIL, cisplatin, or doxorubicin was then added. The TRAIL treatment group contained cycloheximide (5 μg/ml) to inhibit de novo protein synthesis, and the cells were incubated for 16 h prior to measuring cell viability by the MTT assay preformed as described previously.[38] All experiments were repeated at least three times (three biological replicates, carried out on different days), with each experimental group measured in triplicate within each of these individual experiments. Data presented are from a representative experiment.
# [3] = system: p53; experiment: p53 ELISA in C33A cells; conditions: C33A cells (HPV−, mutant p53), with 4 μg/ml mitomycin C, 24 h
# Experimental: Figure 6 Treatment with myricetin and spinacine (5) increases cellular levels of caspase 8 and p53. (a) SiHa cells (1 × 10^6 per well) were seeded into a six-well plate and allowed to incubate overnight. The indicated concentrations of myricetin and spinacine were added, and then cells were incubated for 24 h. Cells were then washed in 1 × PBS and then harvested, and the resulting level of caspase 8 was measured by immunoblot. (b) SiHa and C33A cells (1 × 10^6 per well) were seeded into a six-well plate and allowed to incubate overnight. In all, 200 μM of myricetin and 100 μM spinacine were added together with 4 μg/ml mitomycin C and incubated for 24 h. The resulting level of p53 was measured by enzyme-linked immunosorbent assay, and the level of p53 found in untreated cells was set at 100%. Experiments were performed in triplicate, and error bars indicate the S.D.
# The p53 ELISA was performed as described previously,[26] with some modifications. Antibodies secreted by clone pAb122 (hybridoma obtained from ATCC, antibodies purified from the culture medium using protein-A Sepharose) were used as monoclonal capture antibodies. […] The average and S.D. of the replicates (a minimum of three) were calculated, normalized to the control, and used to prepare the graph.
Structure (SMILES),toxicity to SiHa cells in the absence of TRAIL [1],viability at 125 µM [2] [%],pEC50 [2],increase in cell death in the presence versus absence of TRAIL [2] [fold],change in p53 levels ([3]; 100 μM),"sensitivity of SiHa cells to TRAIL ([2]; 100 μM myricetin pretreatment 4 h, TRAIL up to 100 ng/ml + cycloheximide)",change in p53 levels ([3]; 200 μM)
"O=C(O)C1Cc2[nH]cnc2CN1 (centres unmarked) [Spinacine (5), 4,5,6,7-tetrahydro-1H-imidazo[4,5–c]pyridine-6-carboxylic acid]",low toxicity,30 to 40,4.50,8.6,no significant change,,
"O=c1c(O)c(-c2cc(O)c(O)c(O)c2)oc2cc(O)cc(O)c12 [Myricetin, myricetin, reference compound]",low toxicity,30 to 40,3.81,3.5,,increased dramatically,no significant change

# — article PMC5154303, “Flavonol and imidazole derivatives block HPV16 E6 activities and reactivate apoptotic pathways in HPV^+ cells” (Cell Death & Disease, 2016)
